Test results from patent US10450328B2, “Crystals of thiadiazole derivative DPP-IV inhibitors and uses thereof” (CHIA TAI TIANQING PHARMACEUTICAL GROUP CO., LTD., priority 2015, dated 2019).

Assays:
[1] = result in words; cited from earlier work
[2] = target: DPP-IV (Homo sapiens, UniProt P27487); conditions: result in words; cited from earlier work
[3] = Powder fluidity; format: physicochemical; conditions: result in words
[4] = Stability test: experiments on influencing factors (light irradiation, high temperature, high humidity); format: physicochemical; conditions: for stability: result in words
Source text: Suitable amounts of the crystalline Form A obtained in Example 2 and the crystalline Form B obtained in Example 3 were taken to carry out experiments on influencing factors according to the methods described in the Chinese Pharmacopoeia, 2010 edition, Part II, Appendix.

[5] = High-humidity Test 92.5% RH, 5 days
[6] = High-humidity Test 92.5% RH, 10 days
[7] = High-temperature Test 40° C., 5 days
[8] = High-temperature Test 40° C., 10 days
[9] = High-temperature Test 60° C., 5 days
[10] = Light Irradiation Test 4500Lux, 5 days
[11] = Light Irradiation Test 4500Lux, 10 days
[12] = High-temperature Test 60° C., 5 days, 60 °C
[13] = High-temperature Test 60° C., 10 days, 60 °C

Chain of DPP-IV (P27487 whole entry, species assumed): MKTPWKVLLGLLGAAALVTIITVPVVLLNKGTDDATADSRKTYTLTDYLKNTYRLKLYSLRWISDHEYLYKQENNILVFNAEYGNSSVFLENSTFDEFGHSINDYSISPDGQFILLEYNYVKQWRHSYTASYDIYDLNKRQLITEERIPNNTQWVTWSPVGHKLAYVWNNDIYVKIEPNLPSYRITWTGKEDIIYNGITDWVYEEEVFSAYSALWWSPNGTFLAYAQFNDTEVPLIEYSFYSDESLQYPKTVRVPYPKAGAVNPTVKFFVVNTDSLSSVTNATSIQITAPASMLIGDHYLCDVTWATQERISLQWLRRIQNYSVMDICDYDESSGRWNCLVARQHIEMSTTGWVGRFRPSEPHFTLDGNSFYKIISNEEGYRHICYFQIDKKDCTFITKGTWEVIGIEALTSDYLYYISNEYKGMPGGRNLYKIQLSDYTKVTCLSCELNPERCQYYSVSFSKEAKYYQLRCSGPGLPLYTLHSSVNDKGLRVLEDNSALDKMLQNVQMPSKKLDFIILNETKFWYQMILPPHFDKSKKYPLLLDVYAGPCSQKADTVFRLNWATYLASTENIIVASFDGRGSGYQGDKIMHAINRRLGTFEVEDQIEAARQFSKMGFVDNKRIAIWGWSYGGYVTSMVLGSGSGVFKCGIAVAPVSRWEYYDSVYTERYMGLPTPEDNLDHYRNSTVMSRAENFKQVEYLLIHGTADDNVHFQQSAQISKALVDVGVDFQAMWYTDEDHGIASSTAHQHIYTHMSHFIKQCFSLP

SMILES | powder fluidity [3] | Relative Substances Main Peak % ([4]; 0 day) [%] | Relative Substances Maximum Single Impurity % ([4]; 0 day) [%] | Relative Substances Main Peak % [4, 5] [%] | Relative Substances Maximum Single Impurity % [4, 5] [%] | Relative Substances Main Peak % [4, 6] [%] | Relative Substances Maximum Single Impurity % [4, 6] [%] | Relative Substances Main Peak % [4, 7] [%] | Relative Substances Maximum Single Impurity % [4, 7] [%] | Relative Substances Main Peak % [4, 8] [%] | Relative Substances Maximum Single Impurity % [4, 8] [%] | Relative Substances Main Peak % [4, 10] [%] | Relative Substances Maximum Single Impurity % [4, 10] [%] | Relative Substances Main Peak % [4, 11] [%] | Relative Substances Maximum Single Impurity % [4, 11] [%] | stability [4] | also measured
CC#CCn1c(N2CCC[C@@H](N)C2)nc2c1c(=O)n(Cc1ccc3nsnc3n1)c(=O)n2C [Compound 7] |  |  |  |  |  |  |  |  |  |  |  |  |  |  |  |  | half-life in vivo [1]: suitable half-life in vivo; metabolic level in vivo [1]: very good metabolic level in vivo; inhibitory activity against DPP-IV [2]: very good inhibitory activity
CC#CCn1c(N2CCC[C@@H](N)C2)nc2c1c(=O)n(Cc1ccc3nsnc3n1)c(=O)n2C [crystalline Form A] | good powder fluidity | 98.78 | 0.56 | 98.79 | 0.61 | 98.84 | 0.61 | 98.72 | 0.60 | 98.42 | 0.61 | 98.09 | 0.51 | 96.21 | 0.70 | excellent stability | Relative Substances Main Peak % [4, 9]: 98.72%; Relative Substances Maximum Single Impurity % [4, 9]: 0.60%; Relative Substances Maximum Single Impurity % ([4]; High-temperature Test 60° C., 10 days): 0.61%; Relative Substances Main Peak % ([4]; High-temperature Test 60° C., 10 days, 60 °C high-temperature test): 98.74%
CC#CCn1c(N2CCC[C@@H](N)C2)nc2c1c(=O)n(Cc1ccc3nsnc3n1)c(=O)n2C [crystalline Form B] | good powder fluidity | 99.3 | 0.18 | 99.36 | 0.17 | 99.4 | 0.16 | 99.38 | 0.17 | 99.44 | 0.15 | 98.98 | 0.26 | 98.2 | 0.58 | excellent stability | Relative Substances Main Peak % [4, 12]: 99.33%; Relative Substances Maximum Single Impurity % [4, 12]: 0.2%; Relative Substances Main Peak % [4, 13]: 99.12%; Relative Substances Maximum Single Impurity % [4, 13]: 0.24%
